Laboratory results taken from US8952024B2, “Herbicidal pyrimidone derivatives” (E I du Pont de Nemours and Company, priority 2009, dated 2015).

Assays:
Type in all cases: in vivo
[1] = system: barnyardgrass (Echinochloa crus-galli); assay: Test A pre-/postemergence plant response
Method in brief: (§1)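 Plants grown from seed in a loam soil and sand mix received test compounds both as a preemergence soil spray and, at the same time, as a postemergence spray at the one- to two-leaf stage. Injury was judged visually against untreated controls roughly ten days later, 0 meaning no effect and 100 complete control.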

corn (Zea mays) = assay: Test A pre-/postemergence plant response
Method in brief: as §1

[2] = system: giant foxtail (Setaria faberii); assay: Test A pre-/postemergence plant response
Method in brief: as §1

[3] = system: large crabgrass (Digitaria sanguinalis); assay: Test A pre-/postemergence plant response
Method in brief: as §1

[4] = system: morningglory (Ipomoea spp.); assay: Test A pre-/postemergence plant response
Method in brief: as §1

[5] = system: pigweed (Amaranthus retroflexus); assay: Test A pre-/postemergence plant response
Method in brief: as §1

[6] = system: velvetleaf (Abutilon theophrasti); assay: Test A pre-/postemergence plant response
Method in brief: as §1

[7] = system: wheat (Triticum aestivum); assay: Test A pre-/postemergence plant response
Method in brief: as §1

[8] = system: winter barley (Hordeum vulgare); assay: Test B postemergence plant response; conditions: Postemergence
Method in brief: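 Plants at the 1- to 4-leaf stage (2 to 18 cm tall), grown in pots of peat moss/vermiculite medium with wetting agent and starter nutrients, received postemergence applications of test chemicals. After 13 to 15 days in a greenhouse, injury was rated visually against untreated controls on a 0 (no effect) to 100 (complete control) scale.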

[9] = system: barnyardgrass (Echinochloa crus-galli); assay: Test B flooded paddy test; conditions: for Plant response rating, Barnyardgrass: Flood (flooded paddy test), 13 to 15 days
Method in brief: (§2)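 Visual scores run from 0 (no effect) to 100 (complete control), assigned by comparison with controls 13 to 15 days after treatment. Test compounds went straight into water standing 3 cm above the soil, around plants at the 2-leaf stage kept in a greenhouse.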

[10] = system: ducksalad (Heteranthera limosa); assay: Test B flooded paddy test; conditions: for Plant response rating, Ducksalad: Flood (flooded paddy test), 13 to 15 days
Method in brief: as §2

rice (Oryza sativa) = assay: Test B flooded paddy test; conditions: for Plant response rating, Rice: Flood (flooded paddy test), 13 to 15 days
Method in brief: as §2

[11] = system: umbrella sedge (Cyperus difformis); assay: Test B flooded paddy test; conditions: for Plant response rating, Sedge, Umbrella: Flood (flooded paddy test), 13 to 15 days
Method in brief: as §2

[12] = Postemergence, 125 g ai/ha, 0 to 100 scale where 0 is no effect and 100 is complete control
[13] = Postemergence, 500 g ai/ha, visual injury, 0 to 100 scale (0 no effect, 100 complete control), approx. ten days
[14] = Preemergence, 125 g ai/ha, 0 to 100 scale where 0 is no effect and 100 is complete control, approximately ten days
[15] = Preemergence, 500 g ai/ha, 0 to 100 scale, 0 = no effect, 100 = complete control
[16] = Postemergence, 125 g ai/ha, visual injury, 0 to 100 scale (0 no effect, 100 complete control), approx. ten days
[17] = 250 g ai/ha, flooded paddy test, visual rating on 0 to 100 scale (0 no effect, 100 complete control) after 13 to 15 days
[18] = 62 g ai/ha, scale of 0 to 100 where 0 is no effect and 100 is complete control
[19] = 125 g ai/ha, scale 0 to 100, 0 is no effect, 100 is complete control
[20] = Flood, 31 g ai/ha, scale 0 to 100 (0 no effect, 100 complete control)

In the case of CCCCn1c(-c2cc(F)cc(F)c2)ncc(C(=O)C2=C(O)C3CCC(C3)C2=O)c1=O (stereo not shown) [Compound 245], the “Plant response rating, Barnyardgrass” value [1, 12] is reported as 90, the “Barnyardgrass plant response rating” value [1, 13] is reported as 100 and the “Plant response rating, Barnyardgrass” value [1, 14] is reported as 40. The “Plant response rating, Barnyardgrass” value [1, 15] was 100, the “Plant response rating, Corn” value (corn (Zea mays); [12]) was 40 and the “Corn plant response rating” value (corn (Zea mays); [13]) was 90. For the same compound, the “Plant response rating, Corn” value (corn (Zea mays); [14]) was 0, the “Plant response rating, Corn” value (corn (Zea mays); [15]) was 20 and the “Plant response rating, Foxtail, Giant” value [2, 16] was 100. For the same compound, the “Foxtail, Giant plant response rating” value [2, 13] was 100, the “Plant response rating, Foxtail, Giant” value [2, 14] was 80 and the “Plant response rating, Foxtail, Giant” value [2, 15] was 90. For the same compound, the “Plant response rating, Crabgrass, Large” value [3, 12] was 90, the “Crabgrass, Large plant response rating” value [3, 13] was 90 and the “Plant response rating, Crabgrass, Large” value [3, 14] was 80. The “Plant response rating, Crabgrass, Large” value [3, 15] was 100, the “Plant response rating, Morningglory” value [4, 16] was 100 and the “Morningglory plant response rating” value [4, 13] was 100. The “Plant response rating, Morningglory” value [4, 14] was 20, the “Plant response rating, Morningglory” value [4, 15] was 60 and the “Plant response rating, Pigweed” value [5, 16] was 100. For the same compound, the “Pigweed plant response rating” value [5, 13] was 100, the “Plant response rating, Pigweed” value [5, 14] was 80 and the “Plant response rating, Pigweed” value [5, 15] was 90. The “Plant response rating, Velvetleaf” value [6, 16] was 100, the “Velvetleaf plant response rating” value [6, 13] was 100 and the “Plant response rating, Velvetleaf” value [6, 14] was 70. For the same compound, the “Plant response rating, Velvetleaf” value [6, 15] was 100, the “Plant response rating, Wheat” value [7, 16] was 40 and the “Wheat plant response rating” value [7, 13] was 80. For the same compound, the “Plant response rating, Wheat” value [7, 14] was 0, the “Plant response rating, Wheat” value [7, 15] was 20 and the “Plant response rating, Barley” value ([8]; 31 g ai/ha, 0 to 100 scale (0 no effect, 100 complete control)) was 45. For the same compound, the “Plant response rating, Barley” value ([8]; 62 g ai/ha, scale 0 to 100 (0 no effect, 100 complete control)) was 85, the “Plant response rating, Barley” value ([8]; 125 g ai/ha, scale 0 (no effect) to 100 (complete control), 13 to 15 days) was 85 and the “Plant response rating, Barley” value ([8]; 250 g ai/ha, scale 0 to 100 (0 no effect, 100 complete control), 13 to 15 days) was 95. For the same compound, the “Plant response rating, Flood, Barnyardgrass” value [9, 17] was 65, the “Plant response rating, Barnyardgrass” value [9, 18] was 0 and the “Plant response rating, Barnyardgrass” value [9, 19] was 40. For the same compound, the “Barnyardgrass plant response rating” value [9, 20] was 0, the “Plant response rating, Flood, Ducksalad” value [10, 17] was 100 and the “Plant response rating, Ducksalad” value [10, 18] was 100. For the same compound, the “Plant response rating, Ducksalad” value [10, 19] was 100, the “Ducksalad plant response rating” value [10, 20] was 100 and the “Plant response rating, Flood, Rice” value (rice (Oryza sativa); [17]) was 90. For the same compound, the “Plant response rating, Rice” value (rice (Oryza sativa); [18]) was 50, the “Plant response rating, Rice” value (rice (Oryza sativa); [19]) was 50 and the “Rice plant response rating” value (rice (Oryza sativa); [20]) was 50. The “Plant response rating, Flood, Sedge, Umbrella” value [11, 17] was 100, the “Plant response rating, Sedge, Umbrella” value [11, 18] was 100 and the “Plant response rating, Sedge, Umbrella” value [11, 19] was 100. For the same compound, the “Sedge, Umbrella plant response rating” value [11, 20] was 60.
